Broadly, the EC50 is the concentration needed to bring the measured effect to its halfway point.

For this assay, the system named is THP1-Dual™ cells (IRF-Lucia luciferase reporter). The assay can be described thus: THP1-Dual™ cell reporter assay. Particulars: for EC50: small molecules, 24 h, >10,000 nM = minimal activity up to 10 μM, read-out: EC50, Lucia reporter signal; for EC50 / EC50, Lucia reporter signal: some values average of multiple experiments; for EC50, Lucia reporter signal: ADC: drug linker conjugated to targeted mAb, 48 h. The assay is classed as cell-based, human. How it is done: Potency of compounds and ADCs was evaluated using the THP1-Dual™ cells (Invivogen PN: thpd-nfis [also referred to as THP1 dual reporter cells]), which contain an IRF-Lucia luciferase reporter. Cells were cultured in RPMI-1640 (Gibco) with 10% heat-inactivated fetal bovine serum, Pen-Strep (100 U/mL-100 […], Gibco), HEPES (10 mM, Gibco)), sodium pyruvate (1 mM, Gibco), MEM non-essential amino acids (1×, Gibco), GlutaMAX (1×, Gibco), and beta-mercaptoethanol (55 μM, Gibco). Cells were plated in a 96-well flat bottom tissue culture-treated clear polystyrene plate (Corning Costar #3596) at ˜100,000 cells per well in 200 μL with the indicated concentration of the compound or ADC. The supernatant was harvested at 24 hours (compounds) or 48 hours (ADC) post plating for the reporter assay, or as indicated. To measure Lucia reporter signal, 10 µL of the supernatant was combined with 40 µL of QUANTI-Luc™ Luminescence assay reagent (Invivogen PN: rep-qlc1) in a 96-well clear flat bottom tissue culture-treated black polystyrene plate (Corning Costar #3603) and read on a Perkin Elmer Envision plate reader.

Converted amounts (≈) assume the structure as drawn. Where two headings read alike, the source gives them in different places.

In the case of `CCn1nc(C)cc1C(=O)Nc1nc2cc(C(N)=O)cc(O)c2n1C/C=C/Cn1c(NC(=O)c2cc(C)nn2CC)nc2cc(C(N)=O)cc(OCCCNC)c21` [Compound 15b], the EC50 came to 5.8 nM. Also, the “relative potency of free drug, Lucia reporter” value (free drug, 24 h (48 h elsewhere in the source)) is on record as “more potent than 12a”.
With `COc1cc(C(N)=O)cc2nc(NC(=O)c3ccnnc3)n(C/C=C/Cn3c(NC(=O)c4cccnn4)nc4cc(C(N)=O)cc(O)c43)c12` [Compound 42], the EC50 (Homo sapiens, THP1-Dual) was over 10000 nM.
For `CCn1nc(C)cc1C(=O)Nc1nc2cc(C(N)=O)cc(OC)c2n1C/C=C/Cn1c(NC(=O)c2cc(C(F)(F)F)nn2CC)nc2cc(C(N)=O)cc(OCCCN(C)C(=O)CCN3C(=O)C=CC3=O)c21` [compound 109], the “EC50, Lucia reporter signal” value was >10,000 ng/mL.
The same measure, in the same setting: in the case of `CCn1nc(C)cc1C(=O)Nc1nc2cc(C(N)=O)cc(OC)c2n1C/C=C/Cn1c(NC(=O)c2cc(C)nn2C)nc2cc(C(N)=O)cc(OCCC3CN(C(=O)CCN4C(=O)C=CC4=O)C3)c21` [compound 149, (E)-1-(4-(5-carbamoyl-2-(1,3-dimethyl-1H-pyrazole-5-carboxamido)-7-(2-(1-(3-(2,5-dioxo-2,5-dihydro-1H-pyrrol-1-yl)propanoyl)azetidin-3-yl)ethoxy)-1H-benzo[d]imidazol-1-yl)but-2-en-1-yl)-2-(1-ethyl-3-methyl-1H-pyrazole-5-carboxamido)-7-methoxy-1H-benzo[d]imidazole-5-carboxamide] it was >10,000 ng/mL; in that of `CCn1nc(C)cc1C(=O)Nc1nc2cc(S(N)(=O)=O)ccc2n1C/C=C/Cn1c(NC(=O)c2cc(C)nn2C)nc2cc(C(N)=O)cc(OCCCN(C)C(=O)CCN3C(=O)C=CC3=O)c21` [compound 148, (E)-2-(1,3-dimethyl-1H-pyrazole-5-carboxamido)-7-(3-(3-(2,5-dioxo-2,5-dihydro-1H-pyrrol-1-yl)-N-methylpropanamido)propoxy)-1-(4-(2-(1-ethyl-3-methyl-1H-pyrazole-5-carboxamido)-5-sulfamoyl-1H-benzo[d]imidazol-1-yl)but-2-en-1-yl)-1H-benzo[d]imidazole-5-carboxamide], >10,000 ng/mL; in that of `CCn1nc(C)cc1C(=O)Nc1nc2cc(S(N)(=O)=O)ccc2n1C/C=C/Cn1c(NC(=O)c2cc(C)nn2C)nc2cc(C(N)=O)cc(OCCCOC3CN(C(=O)CCN4C(=O)C=CC4=O)C3)c21` [compound 147, (E)-2-(1,3-dimethyl-1H-pyrazole-5-carboxamido)-7-(3-((1-(3-(2,5-dioxo-2,5-dihydro-1H-pyrrol-1-yl)propanoyl)azetidin-3-yl)oxy)propoxy)-1-(4-(2-(1-ethyl-3-methyl-1H-pyrazole-5-carboxamido)-5-sulfamoyl-1H-benzo[d]imidazol-1-yl)but-2-en-1-yl)-1H-benzo[d]imidazole-5-carboxamide], >10,000 ng/mL.
In the case of `CCn1nc(C)cc1C(=O)Nc1nc2cc(C(N)=O)cc(OC)c2n1C/C=C/Cn1c(NC(=O)c2cc(C)nn2CC)nc2cc(C(N)=O)cc(OCCC3CN(C(=O)CCN4C(=O)C=CC4=O)C3)c21` [Compound 26, (E)-1-(4-(5-carbamoyl-2-(1-ethyl-3-methyl-1H-pyrazole-5-carboxamido)-7-methoxy-1H-benzo[d]imidazol-1-yl)but-2-en-1-yl)-7-(2-(1-(3-(2,5-dioxo-2,5-dihydro-1H-pyrrol-1-yl)propanoyl)azetidin-3-yl)ethoxy)-2-(1-ethyl-3-methyl-1H-pyrazole-5-carboxamido)-1H-benzo[d]imidazole-5-carboxamide], the “EC50, Lucia reporter signal” value turned out to be 14.4 ng/mL (≈ 0.015 µM).

The values above are taken from patent US20250255981A1, “IMMUNOMODULATORY ANTIBODY-DRUG CONJUGATES” (Seagen Inc., priority 2022, published 2025).
